Legend:
[1] = test system: cerebral cortical neurons; assay: LDH assay, necrosis inhibiting effect under oxygen-glucose deprivation (OGD) stress; format: cell-based, rat; conditions: 10 μM methylcobalamin 30 minutes before OGD stress (3 hours), measured after 24 hours
Description: Cerebral cortical neurons were collected and cultured by a conventional method. Cerebral cortex was dissected from a fetus of a Sprague-Dawley (SD) rat (18th day of pregnancy) and recovered in ice-cooled Dulbecco's Modified Eagle Medium (DMEM) containing 10% fetal bovine serum (FBS) and 1% penicillin/streptomycin. The pia mater and blood vessels were removed, and the remaining cerebral cortex was transferred to DMEM (containing 1% penicillin/streptomycin and no FBS) and cut into small pieces having a size of 1 mm by surgical scissors. Papain (final concentration, 2 mg/ml) was added to the cell mixture, and the mixture was allowed to react at 37° C. for 30 minutes. DNase I (70 U/ml) was added to the reaction mixture and reaction was carried out for 30 seconds. Then, DMEM containing 10% FBS and 1% penicillin/streptomycin was added to terminate the reaction. […]
To the cerebral cortical neurons (Example 1-1) cultured on a PLL-coated 6-well chamber slide, 10 μM methylcobalamin was added at 30 minutes before exposure to oxygen-glucose deprivation (OGD) stress. […] After 24 hours, the supernatant was collected, and LDH activity was measured using Cytotoxicity Detection Kit^PLUS (SIGMA). LDH activities of the control group and the methylcobalamin addition group were calculated as proportions (%) with respect to the LDH activity of the high control.

[2] = test system: Akt-mTOR pathway; assay: Western blot of Akt, 4EBP1 and S6K phosphorylation (mechanism of macrophage induction); format: cell-based, mouse; conditions: 30 minutes
Experimental: The J774A.1 cells (Example 5-1) were seeded on a dish having a diameter of 6 cm. After 4 days, proteins were collected using a cell lysis buffer containing a cocktail of protease inhibitors. The protein concentration was measured by BCA assay. Then, 50 μg of each sample was subjected to SDS-PAGE, and the electrophoresed proteins were transferred to a polyvinylidene difluoride membrane. The membrane was blocked with a blocking buffer for 1 hour, and then the proteins were allowed to react with primary antibodies at 4° C. overnight. The proteins were further allowed to react with a secondary antibody at room temperature for 1 hour and detected using ECL Western Blotting Detection System. To detect the M1 markers iNOS and IL-1β, lipopolysaccharide (LPS) (100 ng/ml) and methylcobalamin were added at 24 hours before collecting the proteins. To detect the M2 markers Arg1 and CD206, IL-4 (20 ng/ml) and methylcobalamin were added at 72 hours before collecting the proteins.
The mechanism of the macrophage induction (Example 5) by methylcobalamin was analyzed. Specifically, the analysis was carried out as follows. At 30 minutes after IL-4 and methylcobalamin (100 nM and 1 mM) were added, activation of Akt, 4EBP1, and S6K in the Akt-mTOR pathway (one of the major signaling pathways that induce M2 gene expression) was evaluated by Western blot. In the pathway, Akt phosphorylation occurs in response to an upstream signal, and 4EBP1 phosphorylation and S6K phosphorylation further occur through mTORC1 in the downstream. The S6K phosphorylation provides a negative feedback to the upstream of the signaling pathway. Western blot was performed as in Example 5-2, except that IL-4 (20 ng/ml), methylcobalamin, and RAD001 (200 nM) were added at 30 minutes before the proteins were collected, and the primary antibodies for detection were changed.

[3] = IL-4 20 ng/ml + MeCbl 100 nM, listed as methylcobalamin
[4] = IL-4 20 ng/ml + MeCbl 1 mM + RAD001 (200 nM)
[5] = IL-4 20 ng/ml + MeCbl 1 mM, listed as methylcobalamin

Which “LDH activity as proportion with respect to the high control” value [1] does the source give for `C/C1=C2/[N-][C@H]([C@H](CC(N)=O)[C@@]2(C)CCC(=O)NC[C@@H](C)OP(=O)([O-])O[C@H]2[C@@H](O)[C@@H](n3cnc4cc(C)c(C)cc43)O[C@@H]2CO)[C@]2(C)N=C(/C(C)=C3N=C(/C=C4N=C1[C@@H](CCC(N)=O)C\4(C)C)[C@@H](CCC(N)=O)[C@]\3(C)CC(N)=O)[C@@H](CCC(N)=O)[C@]2(C)CC(N)=O.[CH3-].[Co+3]` [MeCbl, methylcobalamin] here?
Its value is 1.3%.

And the “LDH activity as proportion with respect to the high control” value ([1]; listed as methylcobalamin)?
Its value is “significantly decreased”.

What about the p-4EBP1/4EBP1 ([2]; IL-4 20 ng/ml + MeCbl 100 nM) of the same molecule?
Its p-4EBP1/4EBP1 is 4.94.

What about the p-Akt/Akt ([2]; IL-4 20 ng/ml + MeCbl 100 nM) of the same molecule?
The p-Akt/Akt was 3.58.

And the p-S6K/S6K ([2]; IL-4 20 ng/ml + MeCbl 100 nM)?
The p-S6K/S6K was 2.65.

And the p-4EBP1/4EBP1 [2, 3]?
Its p-4EBP1/4EBP1 is “enhanced”.

And the p-S6K/S6K [2, 3]?
Its p-S6K/S6K is “enhanced”.

What about the p-4EBP1/4EBP1 [2, 4] of the same molecule?
The p-4EBP1/4EBP1 was 2.78.

And the p-Akt/Akt [2, 4]?
The p-Akt/Akt was 3.78.

What about the p-S6K/S6K [2, 4] of the same molecule?
The p-S6K/S6K was 0.33.

What about the p-4EBP1/4EBP1 ([2]; IL-4 20 ng/ml + MeCbl 1 mM) of the same molecule?
The p-4EBP1/4EBP1 was 6.08.

And the p-Akt/Akt ([2]; IL-4 20 ng/ml + MeCbl 1 mM)?
Its p-Akt/Akt is 2.59.

And the p-S6K/S6K ([2]; IL-4 20 ng/ml + MeCbl 1 mM)?
The p-S6K/S6K was 3.12.

What about the p-4EBP1/4EBP1 [2, 5] of the same molecule?
The p-4EBP1/4EBP1 was “activated”.

What about the p-Akt/Akt [2, 5] of the same molecule?
Its p-Akt/Akt is “decreased”.

What about the p-S6K/S6K [2, 5] of the same molecule?
The p-S6K/S6K was “activated”.
